According to PubChem BioAssay AID1345 (Sanford-Burnham Center for Chemical Genomics, 2008):
Active and inactive are the calls of the source.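 Rule for the calls: active = survival above 70% of the untreated level at 25 µM; inactive = the rest.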

These molecules were tested on CSM14.1 cells, VP16-induced death, ATP luminescence, 48 h (assay: protection against VP16 DNA-damage killing – cell-based, undifferentiated CSM14.1, ATP content, selectivity assay for ER stress death inhibitor project, late-stage follow-up (AID 1345)). Details: at 25 µM; hits give high values.
With `CCOc1cc(C2Nc3ccccc3NC3=C2C(=O)CC(c2ccc(OC)cc2)C3)cc(Cl)c1O` (stereo unspecified) the viability was 42% (inactive). For `CCOc1cccc(C2Nc3ccccc3NC3=C2C(=O)CC(c2ccc(OC)cc2)C3)c1` (stereo unspecified), the viability was 50% (inactive). For `COc1ccc(C2CC(=O)C3=C(C2)Nc2ccccc2NC3c2cccc(C(F)(F)F)c2)cc1OC` (stereo unspecified), the viability was 49% (inactive). In the case of `CC1(C)CC(=O)C2=C(C1)Nc1ccccc1NC2c1ccc(-c2ccccc2)cc1` (stereo unspecified), the viability is reported as 53% (inactive). With `COc1ccc(C2CC(=O)C3=C(C2)Nc2ccccc2NC3c2cccc(Oc3ccccc3)c2)cc1OC` (stereo unspecified) the viability was 54% (inactive). `COc1ccc(C2CC(=O)C3=C(C2)Nc2ccccc2NC3c2cc(C)ccc2C)cc1` (stereo unspecified) was tested, and the viability was 56% (inactive). For `COc1ccc(C2CC(=O)C3=C(C2)Nc2ccccc2NC3c2cccc(Br)c2)cc1OC` (stereo unspecified), the viability was 56% (inactive). `O=C1CC(c2ccccc2)CC2=C1C(c1c(F)cccc1Cl)Nc1ccccc1N2` (stereo unspecified) was tested, and the viability was 50% (inactive). In the case of `CSc1ccc(C2Nc3ccccc3NC3=C2C(=O)CC(c2ccccc2)C3)cc1` (stereo unspecified), the viability is reported as 52% (inactive). With `CCCOc1ccc(C2Nc3ccccc3NC3=C2C(=O)CC(c2ccc(OC)c(OC)c2)C3)cc1` (stereo unspecified) the viability was 57% (inactive). `COc1ccc(C2CC(=O)C3=C(C2)Nc2ccccc2NC3c2ccccc2C(F)(F)F)cc1OC` (stereo unspecified) was tested, and the viability was 50% (inactive).
